Point of comparison: Cc1cc(C)c(C)c(C)n1, boiling point 203 °C. Against it:
- Nc1c(F)c(F)cc(F)c1F — lower, 158 °C
- CC(C)CCc1ccccc1 — lower, 195 °C
- C=C(C)C(C)=O — lower, 98 °C
- COP(=O)(OC)OC — lower, 197 °C
- CC1CCC(C)(C)C1 (centres undefined) — lower, 105 °C
- O=[N+]([O-])c1ccccc1 — higher, 211 °C
- CCOC(=O)CCC(=O)OC — higher, 208 °C
- Cc1ccc(C(C)C)cc1O — higher, 238 °C
- c1ccc([Se]c2ccccc2)cc1 — higher, 302 °C
- C1CSCCO1 — lower, 147 °C
- Cc1ccnc(C)n1 — lower, 150 °C
- C=Cc1ccc(C(C)C)cc1 — higher, 204 °C
- ON=C1CCCCC1 — higher, 206 °C
- CC(C)(C)c1cccc2ccccc12 — higher, 279 °C
- CC(C)COC(=O)CC(C)C — lower, 168 °C
- C[C@@H](O)C1CC1 — lower, 124 °C
- COB1OB(OC)OB(OC)O1 — lower, 130 °C
- CCCCCCCCOCCCCCCCC — higher, 283 °C
- ClCC(Cl)CCl — lower, 157 °C
- FC(F)(F)C(F)(F)C(F)(F)C(F)(C(F)(F)F)C(F)(F)F — lower, 57.6 °C
- CC1=CCCC1 — lower, 75.5 °C
- CCCC(C)c1ccccc1 (centres undefined) — lower, 199 °C
- C#CCCCCC — lower, 99.7 °C
- CNC(C)=O — higher, 205 °C
- CCOCCOCCOCCO — higher, 256 °C
- Cc1ccc(OC(=O)c2ccccc2)cc1 — higher, 316 °C
- C1CCSCC1 — lower, 142 °C
- CC(CCN(C)C)N(C)C (centres undefined) — lower, 165 °C

Point of comparison: c1ccc([Se]c2ccccc2)cc1, melting point 2.5 °C. Against it:
- Nc1c(F)c(F)cc(F)c1F — higher, 31.5 °C
- O=c1ccn([C@@H]2C[C@H](F)[C@@H](CO)O2)c(=O)[nH]1 — higher, 186 °C
- O=C1CCc2cccc3c2N1CC3 — higher, 112 °C
- C=C(C)C(C)=O — lower, -54 °C
- Oc1ccc2c(c1)[C@@]13CCCC[C@H]1[C@@H](C2)NCC3 — higher, 271 °C
- COP(=O)(OC)OC — lower, -46 °C
- CC1CCC(C)(C)C1 (centres undefined) — lower, -142 °C
- Cc1ccn2nc(S(=O)(=O)Nc3c(F)cccc3F)nc2n1 — higher, 252 °C
- O=[N+]([O-])c1ccccc1 — higher, 5.7 °C
- CNCCc1c[nH]c2ccccc12 — higher, 88 °C
- COc1nc(NC(C)C)nc(NC(C)C)n1 — higher, 91.5 °C
- Cc1ccc(C(C)C)cc1O — lower, 1 °C
- Cc1ccnc(C)n1 — lower, -4 °C
- C=Cc1ccc(C(C)C)cc1 — lower, -44.7 °C
- c1ccc(Oc2nc(Oc3ccccc3)nc(Oc3ccccc3)n2)cc1 — higher, 234 °C
- CCCCCCCCCCCCCCCCI — higher, 22 °C
- ON=C1CCCCC1 — higher, 90 °C
- CC(C)[C@@H](C)CC[C@@H](C)[C@H]1CC[C@H]2C3=CC[C@H]4C[C@@H](O)CC[C@]4(C)[C@H]3CC[C@]12C — higher, 146 °C
- CN1CCc2cc3c(cc2[C@H]1[C@@H]1OC(=O)c2c1ccc1c2OCO1)OCO3 — higher, 194 °C
- CC(C)(C)c1cccc2ccccc12 — lower, -11.3 °C
- CCCCCCCCCCCCCC#N — higher, 19 °C
- C[C@@H]1NC(=O)N[C@@H]1CCCCCC(=O)O — higher, 157 °C
- O=C(O)C(Br)CBr (centres undefined) — higher, 66.5 °C
- CO[C@H](C(=O)[C@@H](O)[C@@H](C)O)C1Cc2cc3cc(O[C@H]4C[C@@H](O[C@H]5C[C@@H](O)[C@H](O)[C@@H](C)O5)[C@@H](O)[C@@H](C)O4)c(C)c(O)c3c(O)c2C(=O)[C@H]1O[C@H]1C[C@@H](O[C@H]2C[C@@H](O[C@H]3C[C@](C)(O)[C@H](O)[C@@H](C)O3)[C@H](O)[C@@H](C)O2)[C@H](O)[C@@H](C)O1 (some centres undefined) — higher, 182 °C
- COc1ccsc1CN(C(=O)CCl)c1c(C)cccc1C — higher, 73 °C
- Nc1ccc(CCc2ccc(N)cc2)cc1 — higher, 137 °C
- C=Cc1ccc(C)cc1C — lower, -64 °C
- Cc1ccc(O)c(C(=O)O)c1 — higher, 151 °C
- C[C@@H](O)C1CC1 — lower, -32.1 °C
- ICCCI — lower, -20 °C
- COB1OB(OC)OB(OC)O1 — higher, 10 °C
- CCCCCCCCOCCCCCCCC — lower, -7.6 °C
- BrCC=Cc1ccccc1 — higher, 34 °C
- CNC(=O)C(C)(C(C)C)C(C)C — higher, 60 °C
- ClCC(Cl)CCl — lower, -14.7 °C
- FC(F)(F)C(F)(F)C(F)(F)C(F)(C(F)(F)F)C(F)(F)F — lower, -119 °C
- CCC(COCCOc1c(I)cc(I)c(NC(C)=O)c1I)C(=O)O (centres undefined) — higher, 130 °C
- CC1=CCCC1 — lower, -126 °C
- C#CCCCCC — lower, -81 °C
- CNC(C)=O — higher, 28 °C
- CCOCCOCCOCCO — lower, -18.7 °C
- Cc1ccc(OC(=O)c2ccccc2)cc1 — higher, 71.5 °C
- Cl.Cl.NCCc1c[nH]cn1 — higher, 250 °C
- Cc1ccc(O)c(-n2nc3ccccc3n2)c1 — higher, 132 °C
- C1CCSCC1 — higher, 19 °C

Point of comparison: Cc1ccn2nc(S(=O)(=O)Nc3c(F)cccc3F)nc2n1, log10 vapour pressure (mmHg) -11.6. Against it:
- O=C1CCc2cccc3c2N1CC3 — higher, -5.92
- COP(=O)(OC)OC — higher, -0.0706
- CC1CCC(C)(C)C1 (centres undefined) — higher, 1.05
- O=[N+]([O-])c1ccccc1 — higher, -0.611
- COc1nc(NC(C)C)nc(NC(C)C)n1 — higher, -5.64
- Clc1cccc(-c2cccc(Cl)c2Cl)c1Cl — higher, -4.13
- CCCCCCCCCCCCCCCCI — higher, -4.78
- ON=C1CCCCC1 — higher, -1.55
- COc1ccsc1CN(C(=O)CCl)c1c(C)cccc1C — higher, -6.68
- CC(C)COC(=O)CC(C)C — higher, 0.266
- ClCC(Cl)CCl — higher, 0.567
- C#CCCCCC — higher, 1.72
- CNC(C)=O — higher, -0.356
- CCOCCOCCOCCO — higher, -2
- C1CCSCC1 — higher, 0.895

Point of comparison: Clc1cccc(-c2cccc(Cl)c2Cl)c1Cl, log10 Henry constant (atm·m³/mol) -4. Against it:
- COP(=O)(OC)OC — lower, -8.14
- O=[N+]([O-])c1ccccc1 — lower, -4.62
- CCCC=CC=O — lower, -4.31
- ClCC(Cl)CCl — higher, -3.46

With COP(=O)(OC)OC the ready biodegradability was “not readily biodegradable”.
In the case of O=[N+]([O-])c1ccccc1, the ready biodegradability is reported as “not readily biodegradable”.
In the case of CCCCCCCCCCCCCOP(Oc1ccccc1)Oc1ccccc1, the ready biodegradability is reported as “not readily biodegradable”.
In the case of CCCCCCCCOCCCCCCCC, the ready biodegradability is reported as “readily biodegradable”.
In the case of ClCC(Cl)CCl, the ready biodegradability is reported as “not readily biodegradable”.
For O=S(=O)(O)c1cccc(S(=O)(=O)O)c1, the ready biodegradability was “not readily biodegradable”.
For CNC(C)=O, the ready biodegradability was “readily biodegradable”.
With CCOCCOCCOCCO the ready biodegradability was “readily biodegradable”.
With Nc1ccc2c(O)cc(S(=O)(=O)O)cc2c1 the ready biodegradability was “not readily biodegradable”.

Point of comparison: Cc1ccn2nc(S(=O)(=O)Nc3c(F)cccc3F)nc2n1, log10 Koc (L/kg) 1.45. Against it:
- O=[N+]([O-])c1ccccc1 — higher, 1.94
- COc1nc(NC(C)C)nc(NC(C)C)n1 — higher, 2.6
- CC1CCCCN1CCCOC(=O)c1ccc(Cl)c(Cl)c1 (centres undefined) — higher, 3.7
